This is an account of results in patent US20240417812A1, “METHODS FOR TREATING SOLID CANCER PATIENTS WITH CLONAL HEMATOPOIESIS OF INDETERMINATE POTENTIAL” (Olatec Therapeutics, Inc., priority 2022, published 2024).

Structures are written as SMILES. Where two headings read alike, the source gives them in different places.

The subject of one data set is Tet2+/− clones. Nature of the data set: Expansion of Tet2+/− clones in tumor-bearing BM chimera mice. The class given is in vivo, mouse. Particulars: dapansutrile diet. From the text: To create a mouse model that more closely resembles human CHIP, we generated mice with chimeric bone marrow (BM) that was 75% wild type (WT), and 25% Tet2 […] (Tet2+/+) or heterozygous (Tet2+/−). To identify the contribution of WT or Tet2+/− cells to hematopoiesis, we used the pan hematopoietic marker CD45. We used two congenic mouse strains with variants in CD45 C57BL/6 and Boy/J (CD45.2 and CD45.1, respectively), which can be identified with fluorescently labeled antibodies using flow cytometry analysis. To generate the chimeric BM, we lethally irradiated Boy/J recipient mice (CD45.1) with an 11gy split-dose administered three hours apart. Irradiated recipient mice were then transplanted with 2 million unfractionated BM cells that were a mix of 75% CD45.1 WT and 25% CD45.2
Tet2+/+ or Tet2+/−. Cells were given via a retro-orbital (RO) sinus injection. To monitor the engraftment of donor-derived cells, mice were bled every four weeks via the submandibular vein. […]
(§1) After 6 weeks of engraftment, mice were given breast tumors via orthotopic transplantation of breast cancer cells. Tumor progression was assessed by measuring the volume of the tumor in the mouse using calipers. […]
In this example, we first assessed the extent to which Tet2-deficient myeloid cells infiltrated into peripheral blood (FIG. 3A) and in the tumor (FIG. 3B).

The next data set deals with NLRP3 inflammasome (Homo sapiens, UniProt Q96P20). Conditions: cited from earlier work.
The conditions of data set [1]: orally administered to healthy subjects; cited from earlier work.
Data set [2] can be described thus: Blood level in mice fed dapansutrile food pellets. It counts as in vivo, mouse. Conditions: 7.5 g/kg of dapansutrile in food (approx. 1,000 mg/kg/day). From the text: (§2) 2×10^5 E0771 cells were mixed with matrigel and implanted orthotopically into the mammary fat pad (day 0). Mice treated with dapansutrile were fed ad libitum with food pellets containing 7.5 g dapansutrile/kg food, which started on day 3 after E0771 cell implantation and continued until being sacrificed. Mice were sacrificed on day 18 for the germline mouse model and day 15 for the chimeric mouse model. Mice typically consume about 4 g of food per day, resulting in an approximate daily dose of 0 mg/kg/day for control groups and 1,000 mg/kg/day for the treatment groups. […] Wild-type and Tet2+/− mice were fed with control food pellets without dapansutrile. Mice were sacrificed following 15-18 days after E0771 cell implantation. Tumor volumes were assessed using ½(L×W×H) measured via digital caliper.

The conditions of data set [3]: humans treated orally at 1000 mg/day; cited from earlier work.
Data set [4] deals with keratinocyte chemoattractant (KC). Nature of the data set: Plasma KC of BM chimera mice. Conditions: Tet2+/− chimeras, dapansutrile diet vs standard diet, p<0.05. It counts as in vivo, mouse. From the text:
(§3) FIGS. 5A-5B show plasma cytokine production of chemokine C-C motif ligand 2 (CCL2, 5A) and keratinocyte chemoattractant (KC, 5B) of BM chimera mice from FIG. 2

Data set [5] concerns tumor-infiltrating granulocytes. Kind of data set: Flow cytometry of tumor-infiltrating granulocytes of BM chimera mice. It counts as in vivo, mouse. Conditions: Tet2+/− chimeras. The procedure:
After 6 weeks of engraftment, mice were given breast tumors via orthotopic transplantation of breast cancer cells. Tumor progression was assessed by measuring the volume of the tumor in the mouse using calipers. After 15 days, mice were sacrificed, and their bone marrow, peripheral blood, and tumors were harvested for flow cytometry analysis to determine the levels of immune cell populations and relative contribution from WT or Tet2+/+ or Tet2+/− bone marrow cells.
Bone marrow isolation and cell staining was performed on ice in staining medium (SM; Hanks Balanced Salt Solution [HBSS 1×, Corning 1-022-CM] supplemented with heat inactivated fetal bovine serum [FBS, VWR 97068-05] to a final concentration of 2%). Femurs and tibiae were flushed with 3 mL of SM and followed by RBC lysis with ACK lysis buffer. Peripheral blood was isolated via the heart and placed into RBC lysis buffer. After RBC lysis cells were incubated on ice for 30 minutes with antibody cocktails prior to being washed and resuspended in SM containing propidium iodide to stain dead cells. Flow cytometry was performed on the BD FACSCelesta.

The subject of data set [6] is E0771 cells. Nature of the data set: E0771 orthotopic breast tumor model in Tet2+/+ or Tet2+/− bone marrow chimeric mice. The class given is in vivo, mouse.
Source text: as §2
To create a mouse model that more closely resembles human CHIP, we generated mice with chimeric bone marrow (BM) that was 75% wild type (WT), and 25% Tet2 […] (Tet2+/+) or heterozygous (Tet2+/−). To identify the contribution of WT or Tet2+/− cells to hematopoiesis, we used the pan hematopoietic marker CD45. […]
as §1

Data set [7] has as its system chemokine C-C motif ligand 2 (CCL2). Kind of data set: Plasma CCL2 of BM chimera mice. It counts as in vivo, mouse. Conditions: Tet2+/− chimeras, dapansutrile diet vs standard diet, p<0.05.
Source text: as §3

Data set [8] has as its system E0771 cells. Kind of data set: E0771 orthotopic breast tumor model in germline Tet2+/+ or Tet2+/− mice. The class given is in vivo, mouse. The procedure: 6-8 week old B6(Cg)-Tet2tm1.2Rao/J (JAX) female mice heterozygous for Tet2 allele or wild-type for Tet2 allele were purchased for Jackson Laboratories.
The murine metastatic mammary cancer cell line E0771 was purchased from ATCC. E0771 cells were cultured in RPMI (Corning) supplemented with 10% FBS, 1% HEPES, 100 units/ml penicillin and 0.1 mg/ml streptomycin. Cells were maintained in a humidified 5% CO2 atmosphere at 37° C.
as §2
Myeloid cells are the predominant source of tumor-promoting IL-1β in the breast cancer TME, and TET2 mutations have been reported in tumor-infiltrating leukocytes. […] We orthotopically implanted the murine metastatic luminal B breast cancer cell line, E0771, into Tet2+/+ (WT) or Tet2+/− germline mice. Three days after implantation, mice were placed on a control chow diet or a nutritionally identical diet enriched with OLT1177® (dapansutrile) for 15 days. Mice were sacrificed following […] after E0771 cell implantation.

The test system of a further data set is IL-1β. Nature of the data set: IL-1β production from bone marrow adherent cells isolated from tumor-bearing mice (ELISA). It counts as cell-based, mouse. Particulars: adherent bone marrow cells from tumor-bearing Tet2+/− mice, LPS stimulated, dapansutrile treated vs untreated; p<0.05. The protocol:
Bone marrow cells from tumor-bearing mice was collected and filtered through […] cell strainer. 3×10^6 cells were plated in 24-well plates and incubated overnight. The next day to non-adherent fraction was removed and the adherent fraction was treated with 10 μM dapansutrile and were cultured in RPMI supplemented with 10% FBS, 100 units/ml penicillin and 0.1 mg/ml streptomycin for 24 hours. Cytokines were measured in cell culture supernatants using DuoSet ELISA (R&D Systems).
Bone marrow cells were collected from the four long bones as described above and filtered through a […] cell strainer prior to counting. 1×10^6 cells were plated in flat bottom tissue culture plates and incubated overnight. The next day the non-adherent fraction was removed and the adherent fraction was used for downstream experiments.
For western blot and cytokine analysis, adherent bone marrow cells were stimulated±LPS (100 ng/mL) and cultured for an additional 24 hours. Cells were cultured in RPMI supplemented with 10% FBS, 100 units/ml penicillin and 0.1 mg/ml streptomycin. […] Cytokines were measured in cell culture supernatants using DuoSet ELISA (R&D Systems).
Next, we assessed the inflammatory potential of myeloid cells from tumor-bearing mice. […]
A general note: In an ELISA, binding on a coated surface is turned into a signal by an enzyme label.

Sequence of NLRP3 inflammasome (Q96P20 whole entry): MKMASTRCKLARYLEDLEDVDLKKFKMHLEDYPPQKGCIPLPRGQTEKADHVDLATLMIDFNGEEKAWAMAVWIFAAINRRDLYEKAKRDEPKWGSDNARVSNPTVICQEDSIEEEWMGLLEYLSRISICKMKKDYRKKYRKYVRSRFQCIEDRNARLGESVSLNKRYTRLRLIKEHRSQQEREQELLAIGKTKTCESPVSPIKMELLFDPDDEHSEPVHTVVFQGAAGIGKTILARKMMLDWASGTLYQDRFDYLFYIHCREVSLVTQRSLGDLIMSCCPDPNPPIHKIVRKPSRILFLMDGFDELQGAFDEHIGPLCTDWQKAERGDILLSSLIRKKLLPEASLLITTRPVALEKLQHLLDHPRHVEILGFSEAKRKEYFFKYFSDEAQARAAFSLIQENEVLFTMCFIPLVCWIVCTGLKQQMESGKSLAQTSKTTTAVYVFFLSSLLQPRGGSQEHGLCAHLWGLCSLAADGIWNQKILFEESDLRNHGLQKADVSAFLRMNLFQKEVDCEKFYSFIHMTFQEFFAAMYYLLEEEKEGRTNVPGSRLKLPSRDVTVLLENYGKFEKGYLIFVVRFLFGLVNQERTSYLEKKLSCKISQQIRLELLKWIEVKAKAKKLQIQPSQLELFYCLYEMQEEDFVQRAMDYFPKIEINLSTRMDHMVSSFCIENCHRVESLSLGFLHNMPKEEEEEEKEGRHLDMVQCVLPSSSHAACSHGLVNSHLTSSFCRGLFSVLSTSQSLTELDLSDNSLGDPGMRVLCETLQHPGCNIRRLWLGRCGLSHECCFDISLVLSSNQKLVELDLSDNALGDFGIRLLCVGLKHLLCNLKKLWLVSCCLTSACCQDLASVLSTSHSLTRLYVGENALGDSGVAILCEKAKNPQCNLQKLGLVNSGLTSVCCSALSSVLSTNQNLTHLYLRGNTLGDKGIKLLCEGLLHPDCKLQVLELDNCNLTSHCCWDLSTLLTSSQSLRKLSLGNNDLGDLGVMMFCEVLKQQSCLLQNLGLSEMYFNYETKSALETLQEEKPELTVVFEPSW

Take `CS(=O)(=O)CCC#N` [dapansutrile, 3-methanesulfonyl-propionitrile]: the “expansion of Tet2+/− clones” value in the data set on Tet2+/− clones is “able to reduce”. At NLRP3 inflammasome, the NLRP3 inflammasome inhibition entry is recorded as “selectively inhibit”. For the same molecule, the safety result in [1] is “safe”. Besides, the blood level is ~40000 ng/mL in data set [2] and 40000 ng/mL in data set [3]. For the same molecule, the “circulating KC” value in [4] is “significantly decreased”. The “tumor-infiltrating granulocytes (frequency)” value in data set [5] (dapansutrile diet vs standard diet, p<0.05) was “significantly decreased”. Also, in data set [5] (dapansutrile diet, p<0.001), the “MHC-II expression (gMFI) on tumor-infiltrating granulocytes” value was “rescued”. The tumor growth result in the data set on E0771 cells [6] (Tet2+/+ chimeric mice, dapansutrile diet, to baseline level equivalent to dapansutrile-treated Tet2+/− chimeric mice) is “suppressed tumor growth”; in the data set on E0771 cells [6] (Tet2+/− chimeric mice, dapansutrile diet from day 3 vs control chow, p<0.001), “suppressed”; in the data set with E0771 cells [8] (Tet2+/+ (WT) germline mice on dapansutrile vs standard diet, p<0.05) it was “significantly decreased”. In data set [7], the “circulating CCL2” value is recorded as “significantly decreased”. Moreover, in the data set with E0771 cells [8] (Tet2+/+ (WT) vs Tet2+/− mice, both on dapansutrile diet), the “tumor growth, difference between genotypes” value is recorded as “No changes in tumor growth”. This molecule also had a tumor growth reduction in the data set on E0771 cells [8] (Tet2+/− germline mice, dapansutrile diet (7.5 g/kg food, from day 3) vs Tet2+/− on standard diet, p<0.01) of 68%. Besides, the IL-1β secretion result in the data set on IL-1β is reported as “significantly less”.
